Molecular target: human PAD4 (hPAD4) (Homo sapiens, UniProt Q9UM07)
Assay: RFMS human PAD4 functional assay (rapid-fire mass spectrum)
Format: biochemical
Conditions: 5 nM hPAD4 enzyme, 250 μM BAEE, 50 μM Calcium; 30 min preincubation, 90 min reaction at 37° C.
Summary of the method: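 PAD4 (10 nM) preincubated 30 min with compound (top final 50 μM), then BAEE substrate added in pH 7.5 HEPES buffer with DTT, 50 μM calcium, TPEN; 90 min at 37° C. After TCA quench, citrulline derivatized with phenyl glyoxal (4 mM final, 30 min, 37° C) and quantified by RapidFire MS against internal standard.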

human PAD4 (hPAD4), sequence (Q9UM07 whole entry): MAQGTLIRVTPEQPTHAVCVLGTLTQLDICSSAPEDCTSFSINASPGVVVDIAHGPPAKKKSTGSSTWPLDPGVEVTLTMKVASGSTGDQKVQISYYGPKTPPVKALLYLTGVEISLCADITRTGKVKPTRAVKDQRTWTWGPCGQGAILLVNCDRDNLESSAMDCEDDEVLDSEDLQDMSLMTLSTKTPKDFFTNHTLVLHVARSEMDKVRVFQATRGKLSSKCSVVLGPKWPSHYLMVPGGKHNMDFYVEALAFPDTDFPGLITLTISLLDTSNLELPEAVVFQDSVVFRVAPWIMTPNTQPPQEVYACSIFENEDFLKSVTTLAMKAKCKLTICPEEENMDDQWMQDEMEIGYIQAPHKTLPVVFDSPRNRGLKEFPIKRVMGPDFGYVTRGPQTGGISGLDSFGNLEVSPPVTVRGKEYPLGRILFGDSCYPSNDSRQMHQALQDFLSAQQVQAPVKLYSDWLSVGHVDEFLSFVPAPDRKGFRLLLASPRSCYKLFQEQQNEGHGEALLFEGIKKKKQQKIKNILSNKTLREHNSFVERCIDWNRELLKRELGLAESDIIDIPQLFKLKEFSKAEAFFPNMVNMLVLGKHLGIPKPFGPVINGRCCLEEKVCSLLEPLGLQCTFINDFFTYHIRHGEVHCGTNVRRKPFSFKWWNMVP

Structure (SMILES)	IC50 [nM]
COc1cc(C(=O)N2CC3CCC2[C@@H]3N)cc2nc(-c3cc4ccccc4n3CC3CC3)n(Cc3cnn(-c4ncccn4)c3)c12 (stereo partly drawn) [Example 402, (7R)-2-{2-[1-(cyclopropylmethyl)-1H-indol-2-yl]-7-methoxy-1-{[1-(pyrimidin-2-yl)-1H-pyrazol-4-yl]methyl}-1H-1,3-benzodiazole-5-carbonyl}-2-azabicyclo[2.2.1]heptan-7-amine]	66
COc1ncccc1-n1cc(Cn2c(-c3cc4ccccc4n3CC3CC3)nc3cc(C(=O)N4CC5CCC4[C@@H]5N)cc(OC)c32)cn1 (stereo partly drawn) [Example 403, (7R)-2-{2-[1-(cyclopropylmethyl)-1H-indol-2-yl]-7-methoxy-1-{[1-(2-methoxypyridin-3-yl)-1H-pyrazol-4-yl]methyl}-1H-1,3-benzodiazole-5-carbonyl)-2-azabicyclo[2.2.1]heptan-7-amine]	66
COc1cc(C(=O)N2CC3CCC2[C@@H]3N)cc2nc(-c3cc4ccccc4n3CC3CC3)n(Cc3cnn(-c4ccc(C)cn4)c3)c12 (stereo partly drawn) [Example 404, (7R)-2-{2-[1-(cyclopropylmethyl)-1H-indol-2-yl]-7-methoxy-1-{[1-(5-methylpyridin-2-yl)-1H-pyrazol-4-yl]methyl)-1H-1,3-benzodiazole-5-carbonyl}-2-azabicyclo[2.2.1]heptan-7-amine]	66
COc1cc(C(=O)N2CC3CCC2[C@@H]3N)cc2nc(-c3cc4ccccc4n3CC3CC3)n(Cc3cnn(CC#N)c3)c12 (stereo partly drawn) [Example 405, 2-[4-({5-[(7R)-7-amino-2-azabicyclo[2.2.1]heptane-2-carbonyl]-2-[1-(cyclopropylmethyl)-1H-indol-2-yl]-7-methoxy-1H-1,3-benzodiazol-1-yl}methyl)-1H-pyrazol-1-yl]acetonitrile]	66
COc1cc(C(=O)N2C[C@H](N)C[C@@H](F)C2)cc2nc(-c3cc4cccnc4n3CC3CC3)n(Cc3cnn(-c4cncc(F)c4)c3)c12 [Example 406, (3R,5R)-1-{2-[1-(cyclopropylmethyl)-1H-pyrrolo[2,3-b]pyridin-2-yl]-1-{[1-(5-fluoropyridin-3-yl)-1H-pyrazol-4-yl]methyl}-7-methoxy-1H-1,3-benzodiazole-5-carbonyl}-5-fluoropiperidin-3-amine]	69
COc1cc(C(=O)N2C[C@H](N)C[C@@H](F)C2)cc2nc(-c3cc4cccnc4n3CC3CC3)n(Cc3cnn(-c4cccc(O)n4)c3)c12 [Example 407, 6-[4-({5-[(3R,5R)-3-amino-5-fluoropipendine-1-carbonyl]-2-[1-(cyelopropylmethyl)-1H-pyrrolo[2,3-b]pyridin-2-yl]-7-methoxy-1H-1,3-benzodiazol-1-yl}methyl)-1H-pyrazol-1-yl]pyridin-2-ol]	72
COc1cc(C(=O)N2CC3CCC2[C@@H]3N)cc2nc(-c3cc4cccnc4n3CC3CC3)n(Cc3cnn(-c4cncnc4)c3)c12 (stereo partly drawn) [Example 408, (7R)-2-{2-[1-(cyclopropylmethyl)-1H-pyrrolo[2,3-b]pyridin-2-yl]-7-methoxy-1-{[1-(pyrimidin-5-yl)-1H-pyrazol-4-yl]methyl}-1H-1,3-benzodiazole-5-carbonyl}-2-azabicyclo[2.2.1]heptan-7-amine]	74
COc1cc(C(=O)N2CC3CCC2[C@@H]3N)cc2nc(-c3cc4cccnc4n3CC3CC3)n(Cc3cnn(-c4ccncc4)c3)c12 (stereo partly drawn) [Example 409, (7R)-2-{2-[1-(cyclopropylmethyl)-1H-pyrrolo[2,3-b]pyridin-2-yl]-7-methoxy-1-{[1-(pyridin-4-yl)-1H-pyrazol-4-yl]methyl}-1H-1,3-benzodiazole-5-carbonyl)-2-azabicyclo[2.2.1]heptan-7-amine]	82
COc1ncc(-n2cc(Cn3c(-c4cc5ccccc5n4CC4CC4)nc4cc(C(=O)N5CC6CCC5[C@@H]6N)cc(OC)c43)cn2)cc1F (stereo partly drawn) [Example 410, (7R)-2-{2-[1-(cyclopropylmethyl)-1H-indol-2-yl]-1-{[1-(5-fluoro-6-methoxypyridin-3-yl)-1H-pyrazol-4-yl]methyl}-7-methoxy-1H-1,3-benzodiazole-5-carbonyl}-2-azabicyclo[2.2.1]heptan-7-amine]	87
COC(=O)Cn1cc(Cn2c(-c3cc4cccnc4n3CC3CC3)nc3cc(C(=O)N4CC5CCC4[C@@H]5N)cc(OC)c32)cn1 (stereo partly drawn) [Example 411, methyl 2-[4-({5-[(7R)-7-amino-2-azabicyclo[2.2.1]heptane-2-carbonyl]-2-[1-(cyclopropylmethyl)-1H-pyrrolo[2,3-b]pyridin-2-yl]-7-methoxy-1H-1,3-benzodiazol-1-yl}methyl)-1H-pyrazol-1-yl]acetate]	55
CNc1cc(C(=O)N2CC(Cn3c(-c4cc5ccccc5n4CC4CC4)nc4cc(C(=O)N5CC6CCC5[C@@H]6N)cc(OC)c43)C2)ccn1 (stereo partly drawn) [Example 412, (7R)-2-{2-[1-(cyclopropylmethyl)-1H-indol-2-yl]-7-methoxy-1-({1-[2-(methylamino)pyridine-4-carbonyl]azetidin-3-yl}methyl)-1H-1,3-benzodiazole-5-carbonyl}-2-azabicyclo[2.2.1]heptan-7-amine]	18
COc1cc(C(=O)N2CCC[C@@H](N)C2)cc2nc(-c3cc4cccnc4n3CC3CC3)n(CC3CN(C(=O)c4ccccc4)C3)c12 [Example 413, (3R)-1-{1-[(1-benzoylazetidin-3-yl)methyl]-2-[1-(cyclopropylmethyl)-1H-pyrrolo[2,3-b]pyridin-2-yl]-7-methoxy-1H-1,3-benzodiazole-5-carbonyl}piperidin-3-amine]	263
COc1cc(C(=O)N2CC3CCC2[C@@H]3N)cc2nc(-c3cc4ccccc4n3CC3CC3)n(CC3CN(C(=O)c4cnc(Cl)s4)C3)c12 (stereo partly drawn) [Example 414, (7R)-2-(1-{[1-(2-chloro-1,3-thiazole-5-carbonyl)azetidin-3-yl]methyl}-2-[1-(cyclopropylmethyl)-1H-indol-2-yl]-7-methoxy-1H-1,3-benzodiazole-5-carbonyl)-2-azabicyclo[2.2.1]heptan-7-amine]	35
COc1cc(C(=O)N2CC3CCC2[C@@H]3N)cc2nc(-c3cc4ccccc4n3CC3CC3)n(CC3CN(C(=O)c4ccc(C#N)nc4)C3)c12 (stereo partly drawn) [Example 415, 5-[3-({5-[(7R)-7-amino-2-azabicyclo[2.2.1]heptane-2-carbonyl]-2-{1-(cyclopropylmethyl)-1H-indol-2-yl]-7-methoxy-1H-1,3-benzodiazol-1-yl}methyl)azetidine-1-carbonyl]pyridine-2-carbonitrile]	41
COc1cc(C(=O)N2CC3CCC2[C@@H]3N)cc2nc(-c3cc4ccccc4n3CC3CC3)n(CC3CN(C(=O)c4ccsc4)C3)c12 (stereo partly drawn) [Example 416, (7R)-2-{2-[1-(cyclopropylmethyl)-1H-indol-2-yl]-7-methoxy-1-{[1-(thiophene-3-carbonyl)azetidin-3-yl]methyl}-1H-1,3-benzodiazole-5-carbonyl}-2-azabicyclo[2.2.1]heptan-7-amine]	10
COc1cc(C(=O)N2CC(Cn3c(-c4cc5ccccc5n4CC4CC4)nc4cc(C(=O)N5CC6CCC5[C@@H]6N)cc(OC)c43)C2)ccn1 (stereo partly drawn) [Example 417, (7R)-2-{2-[1-(cyclopropylmethyl)-1H-indol-2-yl]-7-methoxy-1-{[1-(2-methoxypyridine-4-carbonyl)azetidin-3-yl]methyl}-1H-1,3-benzodiazole-5-carbonyl}-2-azabicyclo[2.2.1]heptan-7-amine]	11
COc1cc(C(=O)N2CC3CCC2[C@@H]3N)cc2nc(-c3cc4ccccc4n3CC3CC3)n(CC3CN(C(=O)c4cc(C)nc(C)c4)C3)c12 (stereo partly drawn) [Example 418, (7R)-2-{2-[1-(cyclopropylmethyl)-1H-indol-2-yl]-1-{[1-(2,6-dimethylpyridine-4-carbonyl)azetidin-3-yl]methyl}-7-methoxy-1H-1,3-benzodiazole-5-carbonyl}-2-azabicyclo[2.2.1]heptan-7-amine]	14
COc1cc(C(=O)N2CC3CCC2[C@@H]3N)cc2nc(-c3cc4ccccc4n3CC3CC3)n(CC3CN(C(=O)c4ccnc(F)c4)C3)c12 (stereo partly drawn) [Example 419, (7R)-2-{2-[1-(cyclopropylmethyl)-1H-indol-2-yl]-1-{[1-(2-fluoropyridine-4-carbonyl)azetidin-3-yl]methyl}-7-methoxy-1H-1,3-benzodiazole-5-carbonyl}-2-azaticyclo[2.2.1]heptan-7-amine]	16
COc1cc(C(=O)N2CC3CCC2[C@@H]3N)cc2nc(-c3cc4ccccc4n3CC3CC3)n(CC3CN(C(=O)c4ccc(C(F)(F)F)cc4)C3)c12 (stereo partly drawn) [Example 420, (7R)-2-{2-[1-(cyclopropylmethyl)-1H-indol-2-yl]-7-methoxy-1-({1-[4-(trifluoromethyl)benzoyl]aze-tidin-3-yl}methyl)-1H-1,3-benzodiazole-5-carbonyl}-2-azabicyclo[2.2.1]heptan-7-amine]	20
COc1cc(C(=O)N2CC3CCC2[C@@H]3N)cc2nc(-c3cc4ccccc4n3CC3CC3)n(CC3CN(C(=O)c4ccnc(C)c4)C3)c12 (stereo partly drawn) [Example 421, (7R)-2-{2-[1-(cyclopropylmethyl)-1H-indol-2-yl]-7-methoxy-1-{[1-(2-methylpyridine-4-carbonyl)azetidin-3-yl]methyl}-1H-1,3-benzodiazole-5-carbonyl}-2-azabicyclo[2.2.1]heptan-7-amine]	21
COc1cc(C(=O)N2CC3CCC2[C@@H]3N)cc2nc(-c3cc4cccnc4n3CC3CC3)n(CC3CN(C(=O)c4cc(F)ccc4F)C3)c12 (stereo partly drawn) [Example 422, (7R)-2-{2-[1-(cyclopropylmethyl)-1H-pyrrolo[2,3-b]pyridin-2-yl]-1-{[1-(2,5-difluorobenzoyl)azetidin-3-yl]methyl}-7-methoxy-1H-1,3-benzodiazole-5-carbonyl}-2-azabicyclo[2.2.1]heptan-7-amine]	22
COc1cc(C(=O)N2CC3CCC2[C@@H]3N)cc2nc(-c3cc4cccnc4n3CC3CC3)n(CC3CN(C(=O)c4cccc(F)c4F)C3)c12 (stereo partly drawn) [Example 423, (7R)-2-{2-[1-(cyclopropylmethyl)-1H-pyrrolo[2,3-b]pyridin-2-yl]-1-{[1-(2,3-difluorobenzoyl)azetidin-3-yl]methyl}-7-methoxy-1H-1,3-benzodiazole-5-carbonyl}-2-azabicyclo[2.2.1]heptan-7-amine]	23
